Eleven compounds from ChEMBL document CHEMBL1143622 (J Med Chem, 2005) can be followed below.

A value given as a limit tells only on which side of the number the result lay.

In assay [1] the target is Thrombin & trypsin (Homo sapiens) (UniProt P00734+P07477+P07478+P35030). As to the kind of experiment: Selectivity against Thrombin to that of trypsin. Format: protein assay.
The nature of assay [2]: Inhibitory activity against thrombin.
Assay [3] in a line: Inhibitory activity against Coagulation factor X.
Assay [4] deals with Integrin alpha-IIb/beta-3 (Homo sapiens, UniProt P05106+P08514). As to the kind of experiment: Inhibitory activity against binding of Fibrinogen to thrombocyte alpha IIb beta-3 integrin. Format: protein-complex assay.
Assay [5] can be described thus: Inhibitory activity against trypsin.
Assay [6] can be described thus: Inhibitory activity against thrombocyte aggregation induced by ADP. Type of assay: functional.
Assay [7] can be described thus: Inhibitory activity against thrombocyte aggregation induced by collagen. Format: functional.

Sequence of Integrin alpha-IIb/beta-3 (P05106 27-788 limits assumed): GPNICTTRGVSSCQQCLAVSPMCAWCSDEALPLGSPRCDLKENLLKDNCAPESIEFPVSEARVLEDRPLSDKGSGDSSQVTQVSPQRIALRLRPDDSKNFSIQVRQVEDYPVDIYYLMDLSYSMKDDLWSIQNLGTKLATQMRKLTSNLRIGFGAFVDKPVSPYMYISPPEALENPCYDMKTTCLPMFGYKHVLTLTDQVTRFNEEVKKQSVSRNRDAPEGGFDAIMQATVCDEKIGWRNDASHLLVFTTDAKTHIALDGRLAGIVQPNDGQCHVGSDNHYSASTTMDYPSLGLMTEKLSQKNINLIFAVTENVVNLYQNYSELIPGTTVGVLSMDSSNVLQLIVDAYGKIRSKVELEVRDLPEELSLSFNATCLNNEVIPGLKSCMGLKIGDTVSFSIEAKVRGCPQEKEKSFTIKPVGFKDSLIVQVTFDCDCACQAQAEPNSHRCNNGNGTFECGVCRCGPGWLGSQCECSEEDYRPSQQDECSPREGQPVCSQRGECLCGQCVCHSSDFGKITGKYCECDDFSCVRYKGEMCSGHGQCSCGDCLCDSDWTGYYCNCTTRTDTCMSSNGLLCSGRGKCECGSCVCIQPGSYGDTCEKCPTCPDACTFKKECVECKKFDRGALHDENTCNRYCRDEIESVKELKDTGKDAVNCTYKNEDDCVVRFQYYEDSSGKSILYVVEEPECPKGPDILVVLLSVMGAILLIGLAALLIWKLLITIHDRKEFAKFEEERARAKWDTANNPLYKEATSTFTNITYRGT
Sequence of Integrin alpha-IIb/beta-3 (P08514 32-887 limits assumed): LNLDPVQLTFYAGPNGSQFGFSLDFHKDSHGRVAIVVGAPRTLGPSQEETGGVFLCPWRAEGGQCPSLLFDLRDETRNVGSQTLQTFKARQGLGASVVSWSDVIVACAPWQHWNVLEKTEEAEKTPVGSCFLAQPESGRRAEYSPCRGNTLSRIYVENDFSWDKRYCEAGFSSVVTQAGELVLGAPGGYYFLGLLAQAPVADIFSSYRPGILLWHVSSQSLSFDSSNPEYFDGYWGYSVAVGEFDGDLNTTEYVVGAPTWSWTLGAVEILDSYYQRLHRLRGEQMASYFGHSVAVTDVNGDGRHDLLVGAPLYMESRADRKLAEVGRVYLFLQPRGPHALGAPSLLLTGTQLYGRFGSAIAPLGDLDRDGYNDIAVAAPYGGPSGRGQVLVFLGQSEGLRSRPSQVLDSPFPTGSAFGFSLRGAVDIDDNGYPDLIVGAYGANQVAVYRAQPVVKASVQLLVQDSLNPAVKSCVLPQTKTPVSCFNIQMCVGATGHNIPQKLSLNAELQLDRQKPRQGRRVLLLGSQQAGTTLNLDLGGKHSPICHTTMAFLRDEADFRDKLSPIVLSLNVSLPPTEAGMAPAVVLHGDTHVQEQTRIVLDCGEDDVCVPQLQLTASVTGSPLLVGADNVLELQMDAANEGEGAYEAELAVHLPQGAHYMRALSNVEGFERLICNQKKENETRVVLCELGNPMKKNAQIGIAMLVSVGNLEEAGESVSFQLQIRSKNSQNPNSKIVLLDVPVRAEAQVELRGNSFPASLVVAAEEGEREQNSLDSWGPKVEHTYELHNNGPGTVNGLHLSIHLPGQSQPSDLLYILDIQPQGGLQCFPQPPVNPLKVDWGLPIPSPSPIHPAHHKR
Sequence of Integrin alpha-IIb/beta-3 (P08514 891-1039 limits assumed): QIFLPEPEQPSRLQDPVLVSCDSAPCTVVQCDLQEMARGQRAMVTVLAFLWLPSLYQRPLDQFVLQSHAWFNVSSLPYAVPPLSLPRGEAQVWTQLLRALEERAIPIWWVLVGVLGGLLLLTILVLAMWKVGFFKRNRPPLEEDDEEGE

`N=C(N)c1ccc(CN2C(=O)COc3cc(NC(=O)C(Cc4ccccc4)C(=O)N[C@@H](CCC(=O)O)C(=O)O)ccc32)cc1` (stereo not given in full) had a Selectivity in assay [1] of 0.4. For the same compound, the Ki (commonly the equilibrium dissociation constant of an inhibitor or competing ligand from its target) in assay [2] was determined as 49.4 µM; in assay [3] it was 25.7 µM; in assay [4], 0.206 µM; in assay [5], 17.7 µM.

The compound `N=C(N)c1ccc(CN2C(=O)COc3cc(NC(=O)C(Cc4ccccc4)C(=O)O)ccc32)cc1` (stereo not given) gave a Selectivity in assay [1] of 0.1. Moreover, the inhibitory constant (Ki) in assay [2] stood at 53.8 µM; in assay [3], 31.6 µM; in assay [4], 3.94 µM; in assay [5], 5.5 µM.

In assay [1], `CCOC(=O)CNC(=O)C(Cc1ccccc1)C(=O)Nc1ccc2c(c1)OCC(=O)N2Cc1ccc(C(=N)N)cc1` (stereo not given) yielded a Selectivity of 0.69. The Ki was determined as 12.1 µM in assay [2], 20.6 µM in assay [3], 6.84 µM in assay [4] and 8.4 µM in assay [5].

In turn, `CCOC(=O)CC[C@H](NC(=O)[C@H](Cc1ccccc1)C(=O)Nc1ccc2c(c1)OCC(=O)N2Cc1ccc(C(=N)N)cc1)C(=O)OCC` registered a Selectivity in assay [1] of 2. Further, the Ki stood at 23.3 µM in assay [2], 54.1 µM in assay [3], 3.94 µM in assay [4] and 46.2 µM in assay [5].

Consider `CCOC(=O)CC[C@H](NC(=O)C(Cc1ccccc1)C(=O)Nc1ccc2c(c1)OCC(=O)N2Cc1ccc(C(=N)N)cc1)C(=O)OCC` (stereo not given in full), for which, in assay [1], the Selectivity worked out at 0.5. Also, the Ki in assay [2] was 21.6 µM; in assay [3], 19.2 µM; in assay [4], 3.66 µM; in assay [5] it was 10.5 µM.

`CCOC(=O)C[C@H](NC(=O)c1ccc2c(c1)OC(OCc1ccc(C(=N)N)cc1)C(=O)N2C)c1ccccc1` (stereo not given in full) registered a Selectivity in assay [1] of 4.2. Besides, the Ki is 54.6 µM in assay [3], 24.6 µM in assay [4] and 16 µM in assay [5].

For `COC(=O)C(Cc1ccccc1)C(=O)Nc1ccc2c(c1)OCC(=O)N2Cc1ccc(C(=N)N)cc1` (stereo not given), the 50% inhibitory concentration (IC50) (as a rule, the concentration that inhibits the measured activity by half) in assay [6] is 63 µM; in assay [7], 85 µM. In assay [1], this compound registered a Selectivity of 0.14. Also, the Ki in assay [2] is 38.6 µM; in assay [3], 22.3 µM; in assay [4], 0.973 µM; in assay [5], 5.3 µM.

`CN1C(=O)C(OCc2ccc(C(=N)N)cc2)Oc2cc(C(=O)N[C@@H](CC(=O)O)c3ccccc3)ccc21` (stereo not given in full): the Ki is 14.9 µM in assay [2], more than 200 µM in assay [3], 1.64 µM in assay [4] and 26.5 µM in assay [5].

The compound `CCOC(=O)[C@H](C)NC(=O)C(Cc1ccccc1)C(=O)Nc1ccc2c(c1)OCC(=O)N2Cc1ccc(C(=N)N)cc1` (stereo not given in full) returned a Selectivity in assay [1] of 0.57. In addition, the Ki in assay [2] is 21.3 µM; in assay [3] it was 26.8 µM; in assay [4] it was 7.3 µM; in assay [5] it was 12.1 µM.

For `CCOC(=O)[C@H](C)NC(=O)[C@H](Cc1ccccc1)C(=O)Nc1ccc2c(c1)OCC(=O)N2Cc1ccc(C(=N)N)cc1`, in assay [1], the Selectivity amounted to 0.5. The Ki in assay [2] was found to be 20.6 µM; in assay [3], 21.1 µM; in assay [4], 59.1 µM; in assay [5] it was 9.6 µM.

The compound `CCOC(=O)[C@H](Cc1ccccc1)C(=O)Nc1ccc2c(c1)OCC(=O)N2Cc1ccc(C(=N)N)cc1` yielded a Selectivity in assay [1] of 0.3. Also, the Ki stood at 16.3 µM in assay [2], 8.8 µM in assay [3], 5.19 µM in assay [4] and 5.5 µM in assay [5].
